Assay results taken from patent publication US12158464B2, “Methods for modeling disease tissue using three-dimensional tissue systems” (priority 2013, dated 2024).

Legend:
hESC-CM biowires (Hes2) [1] = format: cell-based, human
Description: After preculture for 7 days, biowires were randomly transferred to 6-well plates and cultured in StemPro-34 media in the absence or presence of Isoproterenol (100 nM), Angiotensin II (200 nM [17]) or Endothelin-1 (150 nM)(Sigma) for 7 days. This protocol was chosen to replicate the chronic treatment of mice as described. […] Isolated single cells were seeded on Matrigel-coated glass cover slips before cell area and calcium transient measurements were performed. Immunostaining and Fluorescence Microscopy. Immunostaining was performed using the following antibodies: mouse anti-cTNT (1:100, Thermo Scientific; MS-295-P1), mouse anti-α-actinin (1:200, Abcam, ab9465), anti-mouse-Alexa Fluor 488 (1:400, Invitrogen, A21202), anti-rabbit-TRITC (1:400, Invitrogen, 81-6114). DAPI was used to counterstain nuclei. Phalloidin Alexa Fluor 660 (1:1000, Invitrogen, A22285) was used to detect actin fibers. The stained cells were visualized using a fluorescence microscope (Leica CTR6000) and images captured using the Leica Application Suite software. For confocal microscopy cells were visualized using a fluorescence confocal microscope (Zeiss LSM-510). Transmission Electron Microscopy (TEM). Tissue was fixed with 4% Paraformaldehyde, 1% Glutaraldehyde in 0.1 M PBS for at least 1 hr and washed 3 times with PBS pH 7.2. Post-fixation was done with 1% Osmium Tetraoxide in 0.1 M PBS, pH 7.2 for 1 hr and dehydrated using ethanol series from 25 to 100%. Tissue was infiltrated using Epon resin and polymerized in plastic dishes at 40° C. for 48 hr. Tissue was stained with Uranyl Acetate and Lead Citrate after sectioning. Imaging was performed at Hitachi H-7000 transmission electron microscope.

[2] = test system: hESC-derived CMs 3D tissues; format: cell-based, human
Description: Alternatively, to measure the force generated by the 3D engineered cardiac tissues, a bioreactor consisting of a PDMS tissue chamber capable of housing 8 micotissues was employed. […] Briefly, each well of the PDMS chamber had two posts which served as anchoring points for each cardiac tissue during gel compaction. Furthermore, by tracking a post's deflection, the force of contraction a cardiac tissue generated was determined. Cardiac tissues underwent 7 days of pre-culture followed by 7 days of treatment with endothelin-1, angiotensin II or isoproterenol. After the treatment, the contractile force of each cardiac tissue was determined by video recording, one at a time, the top surface of a post for each cardiac tissue while being paced at 0.5 or 1 Hz using CellSens software (Olympus). Each video was then exported as a series of Tiff images and opened in ImageJ. […] Using the method of superposition for a cantilever beam-partial uniform deflection, a point force was calculated and then normalized to the tissues cross sectional area (assumed circular) to determine the cardiac force per area.

[3] = test system: Hes2 hESC-derived cardiomyocyte tissue strands; conditions: Hes2 hESC-cardiomyocyte tissue strand; DI-4-ANEPPS imaging
Description: For human cardiac tissue strands, day 20 EBs generated as described above were incubated in collagenase type I (1 mg/ml; Sigma) and DNAse (1 mg/ml, CalBiochem) in Hank's Balanced Salt Solution (NaCl, 136 mM; NaHCO3, 4.16 mM; Na3PO4, 0.34 mM; KCl, 5.36 mM; KH2PO4, 0.44 mM; dextrose, 5.55 mM; HEPES, 5 mM) for 2 hr at 37° C. EBs were centrifuged (800 r.p.m., 5 min), incubated with trypsin (0.25%, Gibco) for 5 min at 37° C. and pipetted gently to dissociate the cells. After dissociation, cells were centrifuged (1,000 r.p.m., 5 min), counted and seeded at 0.5×10^6 cells/strand of 0.5 cm in length. This ratio was maintained for generation of longer tissue strands. […]
For optical mapping, tissue strands were incubated with a voltage sensitive dye (Di-4-ANEPPS 5 μM, Invitrogen) for 20 min at 37° C. in warm Tyrode's solution (NaCl 118 mM, KCl, 4.7 mM, CaCl2 1.25 mM, MgSO4 0.6 mM, KH2PO4 1.2 mM, NaHCO3 25 mM, glucose 6 mM; oxygenated by bubbling carbogen 95% O2, 5% CO2 for at least 20 minutes shortly before use). Dye fluorescence was recorded on a MVX-10 Olympus fluorescence microscope equipped with a high-speed CMOS camera (Ultima-L, Scimedia)^29-30. […] The fluorescence was excited using a mercury arc source (X-Cite Exacte) with green filter (Olympus U-MWIG2 filter cube). […]

[4] = test system: endothelialized AngioChip human cardiac tissue; conditions: 10 μM perfused through built-in vasculature, within 30 min
Description: Cardiac drug test. On day 7 of culture, the spontaneous contractions of the cardiac tissues were recorded as bright-field videos. […] After 30 min incubation, the spontaneous contractions of the cardiac tissues were recorded again as bright-field videos. The frequency of contraction was analyzed from the recorded videos with image J. DMSO was used to dissolve the drugs. The final concentration of DMSO in the culture media was diluted to less than 0.1% (v/v).

[5] = test system: hESC-derived cardiomyocytes (Hes2 cell line); test: Calcium transient measurements in single cardiomyocytes dissociated from tissue strands; format: cell-based, human
Description: Calcium transient measurements were taken. Tissue strands were dissociated by incubation with collagenase and trypsin as described in detail above. The dissociated cardiomyocytes were plated onto growth factor free Matrigel (diluted 1:60 in RPMI media)-coated 25-mm microscope glass coverslips overnight. Cells were then incubated with 5 μM of fluo-4 acetoxymethyl ester (fluo-4 AM) in culture media for 2 hours at 37° C. Subsequently, cardiomyocytes were washed twice with dye-free medium and placed back into the incubator for 30 min. A laser scanning confocal microscope (Zeiss LSM 510) was used to measure the fluorescence intensity of fluo-4 AM. The coverslips containing the fluo-4 AM-loaded cardiomyocytes were moved onto a special chamber and tightly secured. Approximately 1.8-1.9 ml of culture medium was added into the chamber, which was placed on a temperature controlled-plate (37° C.) on the microscope. Fluo-4 was excited via an argon laser (488 nm) and emitted fluorescence was collected through a 505 nm emission filter. Changes in fluo-4 AM fluorescence intensity, which indicates transient fluctuation of cytosolic calcium concentration, were recorded in frame and line scan model. The images and fluorescence data were acquired through Zeiss software. The fluorescence data were analyzed with Origin 8.5 software. Fluorescence signals (F) were normalized to baseline fluorescence after loading fluo-4 AM. The rising phase of the signals was fitted by linear model while the decaying phase of the signals was fitted by ExpDecay with Offset model. Caffeine, Verapamil (Sigma) and Thapsigargin (Invitrogen) were directly added into the chamber that contained the cardiomyocytes during imaging at concentrations indicated in the figures.

hESC-CM biowires (Hes2) [6] = test: Chronic drug exposure of biowires: quantitative RT-PCR of fetal gene program; format: cell-based, human; conditions: 7 days treatment: ISO 100 nM, Et-1 150 nM, AngII 200 nM; vs untreated control
Description: (§1) After preculture for 7 days, biowires were randomly transferred to 6-well plates and cultured in StemPro-34 media in the absence or presence of Isoproterenol (100 nM), Angiotensin II (200 nM [17]) or Endothelin-1 (150 nM)(Sigma) for 7 days. This protocol was chosen to replicate the chronic treatment of mice as described. […] Isolated single cells were seeded on Matrigel-coated glass cover slips before cell area and calcium transient measurements were performed.
Quantitative RT-PCR. RT-PCR was performed as previously described. Total RNA was prepared with the High Pure RNA Isolation Kit (Roche) and treated with RNase-free DNase (Roche). RNA was reverse transcribed into cDNA using random hexamers and Oligo (dT) with SuperScript VILO (Invitrogen). RT-qPCR was performed on a LightCycler 480 (Roche) using LightCycler 480 SYBR Green I Master (Roche). Expression levels were normalized to the housekeeping genes TATA box binding protein (TBP) or Glyceraldehyde 3-phosphate dehydrogenase (GAPDH).

hESC-CM biowires (Hes2) [7] = test: Chronic drug exposure: ELISA of soluble BNP in conditioned media; format: cell-based, human
Description: After preculture for 7 days, biowires were randomly transferred to 6-well plates and cultured in StemPro-34 media in the absence or presence of Isoproterenol (100 nM), Angiotensin II (200 nM [17]) or Endothelin-1 (150 nM)(Sigma) for 7 days. This protocol was chosen to replicate the chronic treatment of mice as described. […] Isolated single cells were seeded on Matrigel-coated glass cover slips before cell area and calcium transient measurements were performed. ELISA. Quantification of soluble BNP from the conditioned media was performed using commercially available ELISA kits.

[8] = test system: Hes2 hESC derived cardiomyocytes; format: cell-based, human; conditions: single cells dissociated at end of 7 days treatment, cardiac troponin T staining
Description: as §1

[9] = test system: human cardiac tissue strands (hESC, Hes2 derived cardiomyocytes); test: Biorod drug testing: tissue beating pattern and contractile force by polymer wire deflection; format: cell-based; conditions: for response of human cardiac tissues to well-known drugs: summary statement
Description: Cardiomyocytes were derived from human embryonic stem cell lines (hESC, Hes2). Embryoid bodies (EBs) were differentiated to the cardiovascular lineage and disassociated as previously described in Device 1 Methods. Before cell seeding, micro-well surface was rinsed with 5% (w/v) Pluronic Acid (Sigma P2443) and then air dried in the bio-safety cabinet. hESC derived cardiomyocytes were suspended at 200 million/ml (unless specified otherwise) in Collagen Type I based gel (3.0 mg/ml of rat tail collagen type I (BD Biosciences) neutralized by 1N NaOH and 10×M199 media as described by the manufacturer) with the supplements of […], 1% (v/v) HEPES, 10% (v/v) Matrigel (BD Biosciences), and […]. Suspended cardiomyocytes were then seeded into the cell culture channel (2.5 μl per well). After 30 min incubation at 37° C. to induce the gelation, appropriate media were added. After seeding, cells were kept in culture for 7 days to allow collagen matrix remodeling and assembly around the wires. Cardiac tissue strands were kept in culture for up to 21 days with media change every 2-3 days. Preferably, the tissue strands should be kept in culture for at least 2 weeks to allow for maturation; however there is no limitation on the maximum culture duration. Cardiac tissue strands were seeded to observe the stability and reproducibility of tissue in long term culture. After seeding, brightfield images (see FIG. 39A for an example) of the tissue strands were taken every day (n=3 per group) using optical microscope (Olympus CKX41) and the diameters of the tissue strands at four distinct locations were analyzed with imageJ (see FIG. 39B for an example). Tissue strand lengths were also analyzed with same method.
Tissue contractile behavior tracing and measurement was carried out. POMac is auto-fluorescent at a wide range of wavelenths; therefore the wires were imaged with a fluorescence microscope under DAPI channel (e.g. 461 nm wavelength) to trace the bending movements of the wires. The POMac is auto-fluorescent at a wide range of wavelengths, including under FITC and Tritc channels. Images were taken at 25 frames per second (fps) (see FIG. 39C). Image sequences were analyzed with ImageJ software using tracking plugin. To calculate the forces originated from cardiac tissues, beam deflection formula with uniformly distributed load in the middle section was used here. […] The engineered cardiac tissues were paced at 2 Hz frequency. From this image sequence, contraction and relaxation time of beating can be estimated. […] Tissue stretching wires can be considered uniformly distributed Load, Wo (Load per force bearing length), which can be calculated with displacement of center point of wires in image sequence, and F can be calculated as well. […] Briefly, entire beam length was L. Section of wire with tissue wrapping around it was experiencing load. Here, the load was assumed to be evenly distributed throughout this section, and Wo was load per length. […] The distance between side of the tissue and a well wall is a, which was assumed equal for both sides. The deflection at center point was y.
Drug testing was carried out.

Compound: CC[C@H](C)[C@H](NC(=O)[C@H](Cc1ccc(O)cc1)NC(=O)[C@@H](NC(=O)[C@H](CCCNC(=N)N)NC(=O)[C@@H](N)CC(=O)O)C(C)C)C(=O)N[C@@H](Cc1cnc[nH]1)C(=O)N1CCC[C@H]1C(=O)N[C@@H](Cc1ccccc1)C(=O)O [AngII, angiotensin II]
- contractile apparatus (transmission electron microscopy) (hESC-CM biowires (Hes2) [1]): significant absence of distinct Z-disks and the lack of a defined sarcomere structure
- force of contraction [2]: significantly reduced force of contraction

Compound: CNC[C@H](O)c1ccc(O)c(O)c1 [Epinephrine, epinephrine]
- spontaneous beating frequency [3]: increasing spontaneous beating frequency
- chronotropic response (frequency of spontaneous contraction) [4]: positive chronotropic response

Compound: Cn1c(=O)c2c(ncn2C)n(C)c1=O [caffeine]
- effect of caffeine added post blockage of L-type Ca2+ channels ([5]; cells from 6 Hz tissue strands, after verapamil or nifedipine): Ca^2+ release into the cytosol
- Ca2+ transient amplitude intensity in response to caffeine ([5]; electrically stimulated cells vs non-stimulated controls, caffeine 5 mM): significantly higher amplitude intensity
- response of cytosolic Ca2+ to caffeine ([5]; single cells from electrically stimulated tissue strands, 3 and 6 Hz conditions): inducing an increase in cytosolic Ca^2+
- response of cytosolic Ca2+ to caffeine ([5]; single cells from non-stimulated control tissue strands): none of the hESC-cardiomyocytes in non-stimulated controls were responsive

Compound: COc1ccc(CCN(C)CCCC(C#N)(c2ccc(OC)c(OC)c2)C(C)C)cc1OC (stereo not drawn) [verapamil]
- Ca2+ transients after blockage of L-type Ca2+ channels ([5]; cells from 6 Hz tissue strands): cessation in Ca^2+ transients

Compound: C[C@H]1O[C@@H](O[C@H]2[C@@H](O)C[C@H](O[C@H]3[C@@H](O)C[C@H](O[C@H]4CC[C@@]5(C)[C@H](CC[C@@H]6[C@@H]5C[C@@H](O)[C@]5(C)[C@@H](C7=CC(=O)OC7)CC[C@]65O)C4)O[C@@H]3C)O[C@@H]2C)C[C@H](O)[C@@H]1O [digoxin]
- chronotropic response (frequency of spontaneous contraction) [4]: negative chronotropic response

Compound: endothelin-1 [Et-1]
- contractile apparatus (transmission electron microscopy) (hESC-CM biowires (Hes2) [1]): significant absence of distinct Z-disks and the lack of a defined sarcomere structure
- ANF and BNP gene expression (fetal gene program) (hESC-CM biowires (Hes2) [6]): no changes in gene expression
- BNP in the conditioned media (hESC-CM biowires (Hes2) [7]; chronic treatment): BNP can also be found in the conditioned media
- increase in the secretion of BNP (hESC-CM biowires (Hes2) [7]; day 2 post-treatment, media conditioned for 48 h): 5 fold
- increase of BNP in the media (hESC-CM biowires (Hes2) [7]; day 7, media conditioned for 24 h): 7 fold
- increase in cell size [8]: 100%
- force of contraction [2]: significantly reduced force of contraction

Compound: C/C=C(/C)C(=O)O[C@H]1C(C)=C2[C@H]([C@@H]1OC(=O)CCCCCCC)[C@@](C)(OC(C)=O)C[C@H](OC(=O)CCC)[C@@]1(O)[C@H]2OC(=O)[C@@]1(C)O [thapsigargin]
- calcium transients after blockage of SERCA ([5]; cells from 6 Hz tissue strands): cessation of calcium transients with time

Compound: Cc1cccc(CCN2CCC(C(=O)c3ccc(NS(C)(=O)=O)cc3)CC2)n1 [E4301]
- response of human cardiac tissues to well-known drugs [9]: responded appropriately

Compound: NC[C@H](O)c1ccc(O)c(O)c1 [Norepinephrine]
- beating frequency ([9]; 10 μM): significant increased beating frequency
- response of human cardiac tissues to well-known drugs [9]: responded appropriately
